Patent US12065436B2, “Cardiac sarcomere inhibitors” (Cytokinetics, Inc., priority 2018, dated 2024)

Biological target: bovine cardiac myofibrils (full-length cardiac myosin ATPase in the native sarcomere) (Bos taurus (Bovine), UniProt Q9BE39)
Assay: Skinned bovine cardiac myofibril ATPase assay (PK/LDH-coupled)
Type: biochemical
Settings: Ca2+ activating to 75% of maximal rate; for CDMF75 IC15: concentration giving 15% inhibition; for IC50: read-out: CDMF75 IC50
Summary of the method: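 Inhibition of steady-state ATPase read at 340 nm through a PK/LDH-coupled NADH system (0.5 mM NADH, 1.5 mM PEP). Detergent-skinned bovine cardiac myofibrils, 1 mg/mL, were tested at pH 6.8 in PIPES/MgCl2 with 50 μM ATP and calcium adjusted to give pCa50 or pCa75 activation.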

Sequence of bovine cardiac myofibrils (full-length cardiac myosin ATPase in the native sarcomere) (Q9BE39 whole entry): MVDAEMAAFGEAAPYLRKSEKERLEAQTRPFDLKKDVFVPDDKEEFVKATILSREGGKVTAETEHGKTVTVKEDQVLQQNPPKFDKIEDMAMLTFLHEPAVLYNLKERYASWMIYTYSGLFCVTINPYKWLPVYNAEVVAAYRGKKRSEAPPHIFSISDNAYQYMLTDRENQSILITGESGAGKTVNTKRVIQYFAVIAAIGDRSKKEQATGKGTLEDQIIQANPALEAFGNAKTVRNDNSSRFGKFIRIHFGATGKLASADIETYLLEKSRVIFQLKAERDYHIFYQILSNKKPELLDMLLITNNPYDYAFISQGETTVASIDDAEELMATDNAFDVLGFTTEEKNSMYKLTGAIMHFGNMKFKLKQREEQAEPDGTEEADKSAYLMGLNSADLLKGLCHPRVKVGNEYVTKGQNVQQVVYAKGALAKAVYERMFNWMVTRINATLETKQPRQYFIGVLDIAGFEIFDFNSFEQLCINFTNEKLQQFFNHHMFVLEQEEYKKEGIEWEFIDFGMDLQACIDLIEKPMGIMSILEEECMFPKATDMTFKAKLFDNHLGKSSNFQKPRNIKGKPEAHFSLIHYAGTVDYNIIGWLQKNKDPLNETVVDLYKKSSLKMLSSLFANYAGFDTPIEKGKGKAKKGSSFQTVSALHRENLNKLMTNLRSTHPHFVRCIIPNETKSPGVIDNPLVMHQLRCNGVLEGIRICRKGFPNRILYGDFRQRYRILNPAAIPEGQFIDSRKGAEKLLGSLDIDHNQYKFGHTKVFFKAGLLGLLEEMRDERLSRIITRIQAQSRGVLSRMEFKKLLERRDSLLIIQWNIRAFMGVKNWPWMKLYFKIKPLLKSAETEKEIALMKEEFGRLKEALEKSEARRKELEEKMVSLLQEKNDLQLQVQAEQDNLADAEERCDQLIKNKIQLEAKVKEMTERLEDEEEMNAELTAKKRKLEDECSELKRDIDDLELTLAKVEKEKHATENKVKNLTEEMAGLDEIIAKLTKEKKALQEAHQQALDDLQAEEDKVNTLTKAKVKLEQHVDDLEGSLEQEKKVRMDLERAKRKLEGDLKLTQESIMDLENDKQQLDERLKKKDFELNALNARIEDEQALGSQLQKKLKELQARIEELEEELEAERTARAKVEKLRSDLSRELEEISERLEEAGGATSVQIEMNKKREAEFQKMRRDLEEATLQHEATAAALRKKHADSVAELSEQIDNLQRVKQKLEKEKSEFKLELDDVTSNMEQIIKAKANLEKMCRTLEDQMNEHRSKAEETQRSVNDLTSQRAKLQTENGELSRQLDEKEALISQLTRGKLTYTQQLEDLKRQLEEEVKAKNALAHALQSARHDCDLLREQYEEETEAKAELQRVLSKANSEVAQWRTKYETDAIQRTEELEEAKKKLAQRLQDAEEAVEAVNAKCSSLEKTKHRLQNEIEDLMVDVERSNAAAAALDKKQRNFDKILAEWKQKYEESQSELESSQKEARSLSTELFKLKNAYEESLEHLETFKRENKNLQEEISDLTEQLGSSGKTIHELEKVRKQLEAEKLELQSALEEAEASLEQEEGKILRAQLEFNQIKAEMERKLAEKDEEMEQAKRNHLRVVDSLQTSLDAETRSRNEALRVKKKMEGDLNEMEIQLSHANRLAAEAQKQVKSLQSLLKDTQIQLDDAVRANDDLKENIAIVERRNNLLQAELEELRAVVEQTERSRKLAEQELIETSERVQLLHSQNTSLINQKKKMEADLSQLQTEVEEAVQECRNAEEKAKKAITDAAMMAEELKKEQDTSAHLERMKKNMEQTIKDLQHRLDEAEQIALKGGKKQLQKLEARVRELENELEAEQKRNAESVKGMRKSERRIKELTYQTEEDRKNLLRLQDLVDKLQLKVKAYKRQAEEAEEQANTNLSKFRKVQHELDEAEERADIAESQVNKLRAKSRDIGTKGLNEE
Sequence of bovine cardiac myofibrils (full-length cardiac myosin ATPase in the native sarcomere) (P85100 whole entry partner): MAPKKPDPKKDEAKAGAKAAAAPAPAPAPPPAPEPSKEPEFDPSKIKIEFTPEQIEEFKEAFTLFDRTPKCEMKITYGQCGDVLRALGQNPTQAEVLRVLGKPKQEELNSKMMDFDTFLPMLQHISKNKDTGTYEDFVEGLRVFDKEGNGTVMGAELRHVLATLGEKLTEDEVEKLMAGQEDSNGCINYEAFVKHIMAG
Sequence of bovine cardiac myofibrils (full-length cardiac myosin ATPase in the native sarcomere) (Q3SZE5 whole entry partner): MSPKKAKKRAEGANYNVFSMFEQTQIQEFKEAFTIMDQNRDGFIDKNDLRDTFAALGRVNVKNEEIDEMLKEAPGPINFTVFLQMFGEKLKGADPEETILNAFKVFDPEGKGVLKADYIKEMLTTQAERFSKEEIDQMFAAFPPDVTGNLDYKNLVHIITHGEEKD

Row | CDMF75 IC15 | IC50 | Structure (SMILES)
1 | 0.4 µM | 1.2 µM | CCc1nc(-c2ccc3c(c2)OC[C@H]3NC(=O)c2cc(C)no2)no1 [Compound 339, (S)-N-(6-(5-ethyl-1,2,4-oxadiazol-3-yl)-2,3-dihydrobenzofuran-3-yl)-3-methylisoxazole-5-carboxamide]
2 | 1.2 µM | > 39.2 µM | O=C(N[C@@H]1CCc2cc(-c3noc(C4CC4)n3)ccc21)OC1CCCC1 [Compound 328, cyclopentyl (R)-(5-(5-cyclopropyl-1,2,4-oxadiazol-3-yl)-2,3-dihydro-1H-inden-1-yl)carbamate]
3 | 0.3 µM | 1 µM | CCc1nc(-c2ccc3c(c2)CC[C@H]3NC(=O)c2cnc(C)s2)no1 [Compound 595, (R)-N-(5-(5-ethyl-1,2,4-oxadiazol-3-yl)-2,3-dihydro-1H-inden-1-yl)-2-methylthiazole-5-carboxamide]
4 | 0.4 µM | 1.4 µM | Cc1ncoc1C(=O)N[C@@H]1COc2cc(-c3noc(C4(C)CC4)n3)ccc21 [Compound 462, (S)-4-methyl-N-(6-(5-(1-methylcyclopropyl)-1,2,4-oxadiazol-3-yl)-2,3-dihydrobenzofuran-3-yl)oxazole-5-carboxamide]
5 | 4.4 µM | 9.8 µM | CCc1nc(-c2ccc3c(c2)CC[C@H]3NC(=O)Cc2ccccc2)no1 [Compound 591, (R)-N-(5-(5-ethyl-1,2,4-oxadiazol-3-yl)-2,3-dihydro-1H-inden-1-yl)-2-phenylacetamide]
6 | 0.3 µM | 1 µM | Cc1n[nH]cc1C(=O)N[C@@H]1CCc2cc(-c3noc(C4CCC4)n3)ccc21 [Compound 399, (R)-N-(5-(5-cyclobutyl-1,2,4-oxadiazol-3-yl)-2,3-dihydro-1H-inden-1-yl)-3-methyl-1H-pyrazole-4-carboxamide]
7 | 1.8 µM | 9.3 µM | [2H]C([2H])([2H])C(=O)N[C@@H]1COc2cc(-c3noc(C(F)F)n3)ccc21 [Compound 447, (S)-N-(6-(5-(difluoromethyl)-1,2,4-oxadiazol-3-yl)-2,3-dihydrobenzofuran-3-yl)acetamide-2,2,2-d3]
8 | 3.7 µM | 15.8 µM | CC(C)c1nc(-c2ccc3c(c2)CC[C@H]3NC(=O)C(F)F)no1 [Compound 438, (R)-2,2-difluoro-N-(5-(5-isopropyl-1,2,4-oxadiazol-3-yl)-2,3-dihydro-1H-inden-1-yl)acetamide]
9 | 1.6 µM | 8.5 µM | Cc1nc(-c2ccc3c(c2)OC[C@H]3NC(=O)c2cccc([C@@H](C)O)c2)no1 [Compound 735, 3-((R)-1-hydroxyethyl)-N-((S)-6-(5-methyl-1,2,4-oxadiazol-3-yl)-2,3-dihydrobenzofuran-3-yl)benzamide]

More lines, now with the values behind:

Row | Structure (SMILES) | CDMF75 IC15 | IC50
10 | Cc1nc(-c2ccc3c(c2)CC[C@H]3NC(=O)c2oncc2C)no1 [Compound 113, (R)-4-methyl-N-(5-(5-methyl-1,2,4-oxadiazol-3-yl)-2,3-dihydro-1H-inden-1-yl)isoxazole-5-carboxamide] | 0.3 µM | 1.3 µM
11 | Cc1cc(C(=O)N[C@@H]2CCc3cc(-c4nc(C)no4)ccc32)n(C)n1 [Compound 194, (R)-1,3-dimethyl-N-(5-(3-methyl-1,2,4-oxadiazol-5-yl)-2,3-dihydro-1H-inden-1-yl)-1H-pyrazole-5-carboxamide] | 0.7 µM | 2.6 µM
12 | CO[C@@H](C)c1nc(-c2ccc3c(c2)CC[C@H]3NC(=O)c2oncc2C)no1 [Compound 126, N-((R)-5-(5-((S)-1-methoxyethyl)-1,2,4-oxadiazol-3-yl)-2,3-dihydro-1H-inden-1-yl)-4-methylisoxazole-5-carboxamide] | 1.6 µM | 5.7 µM
13 | Cc1conc1C(=O)NC1CCc2cc(-c3noc(C(F)F)n3)ccc21 (stereo not shown) [Compound 104, N-(5-(5-(difluoromethyl)-1,2,4-oxadiazol-3-yl)-2,3-dihydro-1H-inden-1-yl)-4-methylisoxazole-3-carboxamide] | 1.7 µM | 6.3 µM
14 | Cc1nc(C)c(C(=O)N[C@@H]2COc3cc(-c4noc(C(F)F)n4)ccc32)o1 [Compound 193, (S)-N-(6-(5-(difluoromethyl)-1,2,4-oxadiazol-3-yl)-2,3-dihydrobenzofuran-3-yl)-2,4-dimethyloxazole-5-carboxamide] | 0.5 µM | 2.1 µM
15 | [2H]C([2H])([2H])c1nc(-c2ccc3c(c2)CC[C@H]3NC(=O)c2cn(C)nc2C)no1 [Compound 246, (R)-1,3-dimethyl-N-(5-(5-(methyl-d3)-1,2,4-oxadiazol-3-yl)-2,3-dihydro-1H-inden-1-yl)-1H-pyrazole-4-carboxamide] | 1.1 µM | 3.5 µM
16 | Cc1cc(C(=O)NC2CCc3cc(-c4noc(C)n4)ccc32)on1 (stereo not shown) [Compound 34, 3-methyl-N-(5-(5-methyl-1,2,4-oxadiazol-3-yl)-2,3-dihydro-1H-inden-1-yl)isoxazole-5-carboxamide] | 2.1 µM | 8.1 µM
17 | Cc1nn(C)cc1C(=O)NC1CCc2cc(-c3noc([C@H](C)O)n3)ccc21 (stereo partly drawn) [Compound 80, N-(5-(5-((S)-1-hydroxyethyl)-1,2,4-oxadiazol-3-yl)-2,3-dihydro-1H-inden-1-yl)-1,3-dimethyl-1H-pyrazole-4-carboxamide] | 27.5 µM | > 39.2 µM
18 | CCNC(=O)N[C@@H]1CCc2cc(-c3noc(C(F)F)n3)ccc21 [Compound 296, (R)-1-(5-(5-(difluoromethyl)-1,2,4-oxadiazol-3-yl)-2,3-dihydro-1H-inden-1-yl)-3-ethylurea] | 5.8 µM | > 39.2 µM
19 | Cc1nc(-c2ccc3c(c2)CCC3NC(=O)c2cnn(C)n2)no1 (stereo not shown) [Compound 44, 2-methyl-N-(5-(5-methyl-1,2,4-oxadiazol-3-yl)-2,3-dihydro-1H-inden-1-yl)-2H-1,2,3-triazole-4-carboxamide] | 3.3 µM | 12.3 µM
20 | Cc1nocc1C(=O)NC1CCc2cc(-c3noc(C(F)F)n3)ccc21 (stereo not shown) [Compound 129, N-(5-(5-(difluoromethyl)-1,2,4-oxadiazol-3-yl)-2,3-dihydro-1H-inden-1-yl)-3-methylisoxazole-4-carboxamide] | 0.5 µM | 1.5 µM
21 | [2H]C([2H])([2H])c1nc(-c2ccc3c(c2)CC[C@H]3NC(=O)c2ccnn2C)no1 [Compound 242, (R)-1-methyl-N-(5-(5-(methyl-d3)-1,2,4-oxadiazol-3-yl)-2,3-dihydro-1H-inden-1-yl)-1H-pyrazole-5-carboxamide] | 0.5 µM | 1.5 µM
22 | CCc1nn(C)cc1C(=O)NC1CCc2cc(-c3noc(C(F)F)n3)ccc21 (stereo not shown) [Compound 25, N-(5-(5-(difluoromethyl)-1,2,4-oxadiazol-3-yl)-2,3-dihydro-1H-inden-1-yl)-3-ethyl-1-methyl-1H-pyrazole-4-carboxamide] | 3.9 µM | 16.5 µM
23 | Cc1c(C(=O)N[C@@H]2CCc3cc(-c4nc(C5CC5)no4)ccc32)cnn1C [Compound 259, (R)-N-(5-(3-cyclopropyl-1,2,4-oxadiazol-5-yl)-2,3-dihydro-1H-inden-1-yl)-1,5-dimethyl-1H-pyrazole-4-carboxamide] | 0.8 µM | 3 µM
